Measurements: patent US10750743B2, “Pyridazinone herbicides” (E.I. DU PONT DE NEMOURS AND COMPANY, priority 2015, dated 2020)

Assays:
Type in all cases: in vivo
[1] = tested on: ragweed (common ragweed, Ambrosia elatior); experiment: Test A preemergence, directed soil spray, visual injury rating; settings: 0 is no effect, 100 is complete control
Summary of the method: (§1)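 Compounds in a surfactant-containing solvent were applied as a directed soil spray preemergence, or postemergence to plants 2-10 cm tall at the one- to two-leaf stage, in loam-sand blend. After about 10 d in the greenhouse, injury was rated visually against untreated controls on a 0-100 scale (100 = complete control).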

kochia (Kochia scoparia) [2] = experiment: as above; settings: 0 is no effect, 100 is complete control
Summary of the method: as §1

[3] = tested on: barnyardgrass (Echinochloa crus-galli); experiment: as above; settings: 0 is no effect, 100 is complete control
Summary of the method: as §1

[4] = tested on: ryegrass, It. (Italian ryegrass, Lolium multiflorum); experiment: as above; settings: 0 is no effect, 100 is complete control
Summary of the method: as §1

[5] = tested on: pigweed (Amaranthus retroflexus); experiment: as above; settings: 0 is no effect, 100 is complete control
Summary of the method: as §1

[6] = tested on: foxtail, giant (giant foxtail, Setaria faberii); experiment: as above; settings: 0 is no effect, 100 is complete control
Summary of the method: as §1

[7] = tested on: sedge, umbrella (small-flower umbrella sedge, Cyperus difformis); experiment: Test B flooded paddy test, visual rating; settings: Flood, 250 g ai/ha, applied to paddy water, rated after 13 to 15 d
Summary of the method: (§2)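 Plants grown to the 2-leaf stage. At treatment, pots were flooded to 3 cm above the soil, compound was applied directly to the paddy water, and that depth was held throughout. After 13 to 15 d in the greenhouse, response was rated visually against controls on a 0 (no effect) to 100 (complete control) scale.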

[8] = tested on: barnyardgrass (Echinochloa crus-galli); experiment: Test B flooded paddy test, visual rating; settings: Flood, 250 g ai/ha, applied to paddy water, rated after 13 to 15 d
Summary of the method: as §2

rice (Oryza sativa) = experiment: Test B flooded paddy test, visual rating; settings: Flood, 250 g ai/ha, applied to paddy water, rated after 13 to 15 d
Summary of the method: as §2

[9] = tested on: ducksalad (Heteranthera limosa); experiment: Test B flooded paddy test, visual rating; settings: Flood, 250 g ai/ha, applied to paddy water, rated after 13 to 15 d
Summary of the method: as §2

[10] = tested on: galium (catchweed bedstraw, Galium aparine); experiment: Test A postemergence application, visual injury rating; settings: for Plant response rating (0 to 100 scale), Galium: 31 g ai/ha, 0 is no effect, 100 is complete control; for Galium plant response rating: 125 g ai/ha, 0 to 100 scale, 0 no effect, 100 complete control
Summary of the method: as §1

[11] = tested on: ragweed (common ragweed, Ambrosia elatior); experiment: as above; settings: for Plant response rating (0 to 100 scale), Ragweed: 31 g ai/ha, 0 is no effect, 100 is complete control; for Ragweed plant response rating: 125 g ai/ha, 0 to 100 scale, 0 no effect, 100 complete control
Summary of the method: as §1

[12] = tested on: blackgrass (Alopecurus myosuroides); experiment: as above; settings: 0 to 100 scale, 0 no effect, 100 complete control
Summary of the method: as §1

[13] = tested on: wheat (Triticum aestivum); experiment: as above; settings: for Plant response rating (0 to 100 scale), Wheat: 31 g ai/ha, 0 is no effect, 100 is complete control; for Wheat plant response rating: 125 g ai/ha, 0 to 100 scale, 0 no effect, 100 complete control
Summary of the method: as §1

kochia (Kochia scoparia) [14] = experiment: as above; settings: for Plant response rating (0 to 100 scale), Kochia: 31 g ai/ha, 0 is no effect, 100 is complete control; for Kochia plant response rating: 125 g ai/ha, 0 to 100 scale, 0 no effect, 100 complete control
Summary of the method: as §1

[15] = tested on: barnyardgrass (Echinochloa crus-galli); experiment: as above; settings: 0 to 100 scale, 0 no effect, 100 complete control
Summary of the method: as §1

[16] = tested on: ryegrass, It. (Italian ryegrass, Lolium multiflorum); experiment: as above; settings: for Plant response rating (0 to 100 scale), Ryegrass, It.: 31 g ai/ha, 0 is no effect, 100 is complete control; for Ryegrass, It. plant response rating: 125 g ai/ha, 0 to 100 scale, 0 no effect, 100 complete control
Summary of the method: as §1

[17] = tested on: pigweed (Amaranthus retroflexus); experiment: as above; settings: for Plant response rating (0 to 100 scale), Pigweed: 31 g ai/ha, 0 is no effect, 100 is complete control; for Pigweed plant response rating: 125 g ai/ha, 0 to 100 scale, 0 no effect, 100 complete control
Summary of the method: as §1

corn (Zea mays) = experiment: as above; settings: for Plant response rating (0 to 100 scale), Corn: 31 g ai/ha, 0 is no effect, 100 is complete control; for Corn plant response rating: 125 g ai/ha, 0 to 100 scale, 0 no effect, 100 complete control
Summary of the method: as §1

[18] = tested on: foxtail, giant (giant foxtail, Setaria faberii); experiment: as above; settings: for Plant response rating (0 to 100 scale), Foxtail, Giant: 31 g ai/ha, 0 is no effect, 100 is complete control; for Foxtail, Giant plant response rating: 125 g ai/ha, 0 to 100 scale, 0 no effect, 100 complete control
Summary of the method: as §1

Structure (SMILES)	Plant response rating (0 to 100 scale), Ragweed ([1]; 31 g ai/ha)	Plant response rating (0 to 100 scale), Ragweed ([1]; 125 g ai/ha)	Plant response rating (0 to 100 scale), Kochia (kochia (Kochia scoparia) [2]; 31 g ai/ha)	Plant response rating (0 to 100 scale), Kochia (kochia (Kochia scoparia) [2]; 125 g ai/ha)	Plant response rating (0 to 100 scale), Barnyardgrass ([3]; 31 g ai/ha)	Plant response rating (0 to 100 scale), Barnyardgrass ([3]; 125 g ai/ha)	Plant response rating (0 to 100 scale), Ryegrass, It. ([4]; 31 g ai/ha)	Plant response rating (0 to 100 scale), Ryegrass, It. ([4]; 125 g ai/ha)	Plant response rating (0 to 100 scale), Pigweed ([5]; 31 g ai/ha)	Plant response rating (0 to 100 scale), Pigweed ([5]; 125 g ai/ha)	Plant response rating (0 to 100 scale), Foxtail, Giant ([6]; 31 g ai/ha)	Plant response rating (0 to 100 scale), Foxtail, Giant ([6]; 125 g ai/ha)	Sedge, Umbrella plant response rating (0 to 100 scale, 0 is no effect, 100 is complete control) [7]	Barnyardgrass plant response rating (0 to 100 scale, 0 is no effect, 100 is complete control) [8]	Rice plant response rating (0 to 100 scale, 0 is no effect, 100 is complete control) (rice (Oryza sativa))	Ducksalad plant response rating (0 to 100 scale, 0 is no effect, 100 is complete control) [9]	Plant response rating (0 to 100 scale), Galium [10]	Galium plant response rating [10]	Plant response rating (0 to 100 scale), Ragweed [11]	Ragweed plant response rating [11]	further results
CC(=O)Oc1c(C)nn(C)c(=O)c1-c1ccc(Cl)c2sccc12 [Compound 60]	0	0	0	0	0	0	0	10	0	100	0	0	0	0	0	0	20	100	0	0	Blackgrass plant response rating ([12]; 31 g ai/ha): 0; Blackgrass plant response rating ([12]; 125 g ai/ha): 0; Plant response rating (0 to 100 scale), Wheat [13]: 0; Wheat plant response rating [13]: 0; Plant response rating (0 to 100 scale), Kochia (kochia (Kochia scoparia) [14]): 20; Kochia plant response rating (kochia (Kochia scoparia) [14]): 70; Barnyardgrass plant response rating ([15]; 31 g ai/ha): 0; Barnyardgrass plant response rating ([15]; 125 g ai/ha): 0; Plant response rating (0 to 100 scale), Ryegrass, It. [16]: 0; Ryegrass, It. plant response rating [16]: 10; Plant response rating (0 to 100 scale), Pigweed [17]: 0; Pigweed plant response rating [17]: 30; Plant response rating (0 to 100 scale), Corn (corn (Zea mays)): 0; Corn plant response rating (corn (Zea mays)): 0; Plant response rating (0 to 100 scale), Foxtail, Giant [18]: 0; Foxtail, Giant plant response rating [18]: 0
Cc1nn(C)c(=O)c(-c2ccc(Cl)c3sccc23)c1O [Compound 63]	0	0	10	20	0	0	0	20	0	0	0	0	0	0	0	0	30	90	0	0	Blackgrass plant response rating ([12]; 31 g ai/ha): 0; Blackgrass plant response rating ([12]; 125 g ai/ha): 0; Plant response rating (0 to 100 scale), Wheat [13]: 0; Wheat plant response rating [13]: 0; Plant response rating (0 to 100 scale), Kochia (kochia (Kochia scoparia) [14]): 0; Kochia plant response rating (kochia (Kochia scoparia) [14]): 60; Barnyardgrass plant response rating ([15]; 31 g ai/ha): 0; Barnyardgrass plant response rating ([15]; 125 g ai/ha): 0; Plant response rating (0 to 100 scale), Ryegrass, It. [16]: 0; Ryegrass, It. plant response rating [16]: 10; Plant response rating (0 to 100 scale), Pigweed [17]: 0; Pigweed plant response rating [17]: 50; Plant response rating (0 to 100 scale), Corn (corn (Zea mays)): 0; Corn plant response rating (corn (Zea mays)): 0; Plant response rating (0 to 100 scale), Foxtail, Giant [18]: 0; Foxtail, Giant plant response rating [18]: 0
CC(=O)Oc1c(Cl)nn(C)c(=O)c1-c1nccc2ccccc12 [Compound 66]	0	0	0	0	0	0	0	50	10	20	0	0	0	0	0	0	0	50	10	30	Blackgrass plant response rating ([12]; 31 g ai/ha): 0; Blackgrass plant response rating ([12]; 125 g ai/ha): 0; Plant response rating (0 to 100 scale), Wheat [13]: 0; Wheat plant response rating [13]: 0; Plant response rating (0 to 100 scale), Kochia (kochia (Kochia scoparia) [14]): 0; Kochia plant response rating (kochia (Kochia scoparia) [14]): 40; Barnyardgrass plant response rating ([15]; 31 g ai/ha): 0; Barnyardgrass plant response rating ([15]; 125 g ai/ha): 10; Plant response rating (0 to 100 scale), Ryegrass, It. [16]: 20; Ryegrass, It. plant response rating [16]: 40; Plant response rating (0 to 100 scale), Pigweed [17]: 40; Pigweed plant response rating [17]: 50; Plant response rating (0 to 100 scale), Corn (corn (Zea mays)): 0; Corn plant response rating (corn (Zea mays)): 0; Plant response rating (0 to 100 scale), Foxtail, Giant [18]: 0; Foxtail, Giant plant response rating [18]: 10
